Assay results: patent US10577373B2, “TYK2 inhibitors and uses thereof” (Nimbus Lakshmi, Inc., priority 2017, dated 2020)

These compounds were tested on GM-CSF induced STAT5 phosphorylation mediated by the JAK2/JAK2 homdimeric complex (assay: GM-CSF Induced pSTAT5 in Human PBMC). Details: Homo sapiens, PBMC, 20 min, read-out: PBMC_GMCSF_pSTAT5 IC50, human PBMC; GM-CSF 5 ng/mL for 20 minutes; pSTAT5.
From the text: Human PBMC are isolated from buffy coat and are stored frozen for assays as needed.

IC50 [µM]	Structure (SMILES)
> 12.5	CNc1cc(-c2cn(C(C)C)c3ncc(F)cc23)nc2c(C(=O)N[C@H]3CC[C@@H]3OC)cnn12 [I-1053, 5-(5-fluoro-1-isopropyl-1H-pyrrolo[2,3-b]pyridin-3-yl)-N-((1S,2S)-2-methoxycyclobutyl)-7-(methylamino)pyrazolo[1,5-a]pyrimidine-3-carboxamide]
> 50	CNc1cc(Nc2cccn([C@H]3CCC[C@@H](OC)C3)c2=O)nc2c(C(=O)N[C@H]3CC[C@@H]3OC)cnn12 [I-996]
> 50	CNc1cc(Nc2cccn([C@H]3CCN(CCF)C3)c2=O)nc2c(C(=O)N[C@H]3CC[C@@H]3OC)cnn12 [I-1050, 5-((1-((S)-1-(2-fluoroethyl)pyrrolidin-3-yl)-2-oxo-1,2-dihydropyridin-3-yl)amino)-N-((1 S,2S)-2-methoxycyclobutyl)-7-(methylamino)pyrazolo[1,5-a]pyrimidine-3-carboxamide]
> 50	CNc1cc(Nc2cccn([C@H]3CCCC[C@H]3O)c2=O)nc2c(C(=O)N[C@@H]3CC[C@H]3OC)cnn12 [I-1057]
> 2.5	CNc1cc(Nc2cccn3cnnc23)nc2c(C(=O)N[C@H]3CC[C@@H]3OC)cnn12 [I-1102]
> 50	CNc1cc(Nc2cccn([C@@H]3CCCN(CCF)C3)c2=O)nc2c(C(=O)N[C@@H]3CC[C@H]3OC)cnn12 [I-1095]
> 50	CNc1cc(Nc2cccn([C@H]3CCC[C@@H](OC)C3)c2=O)nc2c(C(=O)N[C@@H]3CC[C@H]3O)cnn12 [I-993]
> 50	CNc1cc(Nc2cccn([C@H]3CC[C@@H]3O)c2=O)nc2c(C(=O)N[C@H]3CC[C@@H]3OC)cnn12 [I-1094]
> 12.5	CNc1cc(Nc2cc(Cl)cn(-c3cnn(C)c3F)c2=O)nc2c(C(=O)NC3CC3)cnn12 [I-955]
> 12.5	CNc1cc(Nc2cccn(-c3ncc(C)s3)c2=O)nc2c(C(=O)N[C@@H]3CC[C@H]3O)cnn12 [I-1070]
> 50	CNc1cc(Nc2cccn([C@H]3CCC[C@H]3O)c2=O)nc2c(C(=O)N[C@H]3CC[C@@H]3OC)cnn12 [I-1101]
> 50	CNc1cc(Nc2cccn([C@H]3CCCC[C@H]3O)c2=O)nc2c(C(=O)NC3CC3)cnn12 [I-878]
> 50	CNc1cc(Nc2cccn3ccnc23)nc2c(C(=O)N[C@H]3CC[C@@H]3OC)cnn12 [I-1052]
> 50	CNc1cc(Nc2cccn([C@@H]3CCC[C@@H](OC)C3)c2=O)nc2c(C(=O)N[C@H]3CC[C@@H]3OC)cnn12 [I-1099]
> 12.5	CNc1cc(Nc2cccn([C@@H]3CC[C@H]3OC)c2=O)nc2c(C(=O)N[C@@H]3C[C@@H]3F)cnn12 [I-1022]
> 50	CNc1cc(Nc2cccc3ocnc23)nc2c(C(=O)NC3CCC3OC)cnn12 (centres unmarked) [I-1051, 5-(benzo[d]oxazol-4-ylamino)-N-(2-methoxycyclobutyl)-7-(methylamino) pyrazolo[1,5-a]pyrimidine-3-carboxamide]
> 50	CNc1cc(Nc2cccn([C@@H]3CC[C@H]3O)c2=O)nc2c(C(=O)N[C@@H]3C[C@@H]3F)cnn12 [I-999]
> 50	[2H]C([2H])([2H])Oc1ncccc1Nc1cc(NC)n2ncc(C(=O)NC3CC4(COC4)C3)c2n1 [I-417, 5-((2-(methoxy-d3)pyridin-3-yl)amino)-7-(methylamino)-N-(2-oxaspiro[3.3]heptan-6-yl)pyrazolo[1,5-a]pyrimidine-3-carboxamide]
> 50	CNc1cc(Nc2cccn([C@H]3CCC[C@H]3O)c2=O)nc2c(C(=O)NC3CC3)cnn12 [I-963]

IC50 [µM]	Structure (SMILES)
> 2.5	CNc1cc(Nc2cccn(-c3ccccc3F)c2=O)nc2c(C(=O)N[C@H]3CC[C@H]3O)cnn12 [I-1035]
> 50	CNc1cc(Nc2cccn([C@H]3CCCC[C@H]3OC)c2=O)nc2c(C(=O)N[C@H]3CC[C@@H]3OC)cnn12 [I-1097]
> 50	CNc1cc(Nc2cccn([C@H]3CCCN(CCF)C3)c2=O)nc2c(C(=O)N[C@@H]3CC[C@H]3OC)cnn12 [I-1059]
> 50	CNc1cc(Nc2cccn([C@@H]3CC[C@H]3O)c2=O)nc2c(C(=O)N[C@H]3CC[C@@H]3OC)cnn12 [I-1093]
> 50	CNc1cc(Nc2cccn([C@H]3CCC[C@H](OC)C3)c2=O)nc2c(C(=O)NCC3(CO)CC3)cnn12 [I-1010]
> 50	CNc1cc(Nc2cccn(-c3ccccc3F)c2=O)nc2c(C(=O)N[C@H]3CC[C@@H]3O)cnn12 [I-1038]
> 12.5	CNc1cc(-c2cn(C3CC3)c3ncccc23)nc2c(C(=O)N[C@H]3CC[C@@H]3OC)cnn12 (stereo in doubt) [I-1067, 5-(1-cyclopropyl-1H-pyrrolo[2,3-b]pyridin-3-yl)-N-(2-methoxycyclobutyl)-7-(methylamino)pyrazolo[1,5-a]pyrimidine-3-carboxamide]
> 50	CNc1cc(Nc2cccn(-c3cnn(C)c3F)c2=O)nc2c(C(=O)N[C@H]3CC[C@@H]3OC)cnn12 [I-1066]
> 2.5	CNc1cc(-c2cn(C3CCOCC3)c3ncccc23)nc2c(C(=O)NC3CCC3O)cnn12 (centres unmarked) [I-1048, N-(2-hydroxycyclobutyl)-7-(methylamino)-5-(1-(tetrahydro-2H-pyran-4-yl)-1H-pyrrolo[2,3-b]pyridin-3-yl)pyrazolo[1,5-a]pyrimidine-3-carboxamide]
> 50	CNc1cc(Nc2cccn([C@@H]3CCN(CCF)C3)c2=O)nc2c(C(=O)NC3CCC3OC)cnn12 (stereo partly drawn) [I-1096, 5-((1-((R)—1-(2-fluoroethyl)pyrrolidin-3-yl)-2-oxo-1,2-dihydropyridin-3-yl)amino)-N-(2-methoxycyclobutyl)-7-(methylamino)pyrazolo[1,5-a]pyrimidine-3-carboxamide]
> 50	CNc1cc(Nc2cccn([C@H]3CCC[C@H](OC)C3)c2=O)nc2c(C(=O)N[C@H]3CC[C@@H]3OC)cnn12 [I-1098]
> 50	CNc1cc(Nc2cccn([C@H]3CCC[C@H](OC)C3)c2=O)nc2c(C(=O)NCC(C)(C)CO)cnn12 [I-958]
> 50	CNc1cc(Nc2cccn(-c3ccccn3)c2=O)nc2c(C(=O)N[C@H]3CC[C@@H]3O)cnn12 [I-971]
> 50	CNc1cc(Nc2cccn([C@H]3CC[C@](C)(OC)CC3)c2=O)nc2c(C(=O)N[C@H]3CC[C@@H]3OC)cnn12 [I-1105]
> 50	CNc1cc(Nc2cccn([C@H]3[C@@H]4COC[C@@H]43)c2=O)nc2c(C(=O)N[C@H]3CC[C@@H]3OC)cnn12 [I-1088]
> 12.5	CNc1cc(Nc2cccn(-c3cnco3)c2=O)nc2c(C(=O)N[C@H]3CC[C@H]3O)cnn12 [I-1017]
> 50	CNc1cc(Nc2cccn([C@H]3CCC[C@H]3O)c2=O)nc2c(C(=O)N[C@@H]3C[C@@H]3F)cnn12 [I-965]
> 2.5	CNc1cc(Nc2cccn([C@H]3CCC[C@H](OC)C3)c2=O)nc2c(C(=O)N[C@@H]3C[C@@H]3F)cnn12 [I-1042]
> 12.5	CNc1cc(-c2cn(C(C)C)c3ncc(F)cc23)nc2c(C(=O)N[C@H]3CC[C@H]3O)cnn12 [I-1013, 5-(5-fluoro-1-isopropyl-1-pyrrolo[2,3-b]pyridin-3-yl)-N-(2-hydroxycyclobutyl)-7-(methylamino)pyrazolo[1,5-a]pyrimidine-3-carboxamide]

Same assay, conditions: read-out: PBMC_GMCSF_pSTAT5 IC50; human PBMC; GM-CSF 5 ng/mL for 20 minutes; pSTAT5

IC50 [µM]	Structure (SMILES)
> 50	CNc1cc(Nc2cccn([C@@H]3CCC[C@H](OC)C3)c2=O)nc2c(C(=O)N[C@@H]3CC[C@H]3OC)cnn12 [I-1082]
> 50	CNc1cc(Nc2cccn(-c3ncc(C)s3)c2=O)nc2c(C(=O)N[C@@H]3CC[C@@H]3O)cnn12 [I-1073]
> 2.5	CNc1cc(Nc2cccn([C@H]3CC[C@](C)(OC)CC3)c2=O)nc2c(C(=O)N[C@@H]3CC[C@H]3O)cnn12 [I-1107]
